According to BindingDB's records for doi:10.7270/Q2J38R0R (Burnham Center For Chemical Genomics, 2010):
pEC50: −log10 of the molar value.

Molecular target: Intestinal-type alkaline phosphatase (Mus musculus, UniProt P24822)
Test: mouse intestinal alkaline phosphatase activators, dose response, biochemical, luminescence, uHTS hits (AID 488783)

Chain of Intestinal-type alkaline phosphatase (P24822 whole entry, looked up): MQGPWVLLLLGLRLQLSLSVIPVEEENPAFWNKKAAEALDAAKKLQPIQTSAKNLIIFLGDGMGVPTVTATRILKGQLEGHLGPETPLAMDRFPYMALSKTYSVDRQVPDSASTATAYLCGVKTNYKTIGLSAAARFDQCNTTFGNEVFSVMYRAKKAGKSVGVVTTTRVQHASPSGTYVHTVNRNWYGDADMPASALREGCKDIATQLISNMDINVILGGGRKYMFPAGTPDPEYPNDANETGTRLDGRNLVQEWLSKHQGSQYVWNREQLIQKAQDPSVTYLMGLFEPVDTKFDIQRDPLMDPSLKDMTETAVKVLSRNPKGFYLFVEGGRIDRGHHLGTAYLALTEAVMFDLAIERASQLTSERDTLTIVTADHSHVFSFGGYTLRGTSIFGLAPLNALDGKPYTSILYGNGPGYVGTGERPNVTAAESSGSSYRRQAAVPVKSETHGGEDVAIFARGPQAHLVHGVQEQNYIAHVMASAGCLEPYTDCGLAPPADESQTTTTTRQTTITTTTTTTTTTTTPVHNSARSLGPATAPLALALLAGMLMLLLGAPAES

| Compound | pEC50 |
| --- | --- |
| CN(CCO)c1ccc(CN=Nc2ccc([N+](=O)[O-])cc2S(=O)(=O)Nc2ccccc2C(=O)O)cc1 | 4.76 |
| O=C(NN=CC1=CC(=O)C(=O)CC1)NN=CC1=CC(=O)C(=O)CC1 [1,3-bis[[(Z)-(3-hydroxy-4-oxocyclohexa-2,5-dien-1-ylidene)methyl]amino]urea] | 5.30 |
| Cc1cc(=O)[nH]c(N=NCc2ccc(O)c(O)c2)n1 [MLS001194906] | 4.23 |
| O=C1CC(=O)c2c(O)cc(O)c(O)c2C1=O [4,5,7,8-tetrahydroxy-1,2-naphthoquinone] | 5.00 |
